Assays:
Assay type in all cases: in vivo
[1] = tested on: soybean (Glycine max var. Winchester); experiment: Preemergence herbicidal activity, soybean; conditions: Rate of Application 0.3 Kg/Ha, examined after 12-17 days
[2] = tested on: wheat (Triticum aestivum var. Lew); experiment: Preemergence herbicidal activity, wheat; conditions: Rate of Application 0.3 Kg/Ha, examined after 12-17 days
[3] = tested on: field corn (Zea mays var. Pioneer 3732); experiment: Preemergence herbicidal activity, corn; conditions: Rate of Application 0.3 Kg/Ha, examined after 12-17 days
[4] = tested on: velvetleaf (Abutilon theophrasti); experiment: Preemergence herbicidal activity, velvetleaf; conditions: Rate of Application 0.3 Kg/Ha, examined after 12-17 days
[5] = tested on: morningglory (Ipomea lacunosa or Ipomea hederacea); experiment: Preemergence herbicidal activity, morningglory; conditions: Rate of Application 0.3 Kg/Ha, examined after 12-17 days
[6] = tested on: common chickweed (Stellaria media); experiment: Preemergence herbicidal activity, chickweed; conditions: Rate of Application 0.3 Kg/Ha, examined after 12-17 days
[7] = tested on: blackgrass (Aloepecurus myosuroides); experiment: Preemergence herbicidal activity, blackgrass; conditions: Rate of Application 0.3 Kg/Ha, examined after 12-17 days
Method: The benzofused heterocyclic compounds of this invention were tested for pre- and postemergence herbicidal activity using a variety of crops and weeds. The test plants included soybean (Glycine max var. Winchester), field corn (Zea mays var. Pioneer 3732), wheat (Triticum aestivum var. Lew), morningglory (Ipomea lacunosa or Ipomea hederacea), velvetleaf (Abutilon theophrasti), green foxtail (Setaria viridis), Johnsongrass (Sorghum halepense), blackgrass (Aloepecurus myosuroides), common chickweed (Stellaria media), and common cocklebur (Xanthium strumarium L.).
For preemergence testing, two disposable fiber flats (8 cm×15 cm×25 cm) for each rate of application of each candidate herbicide were filled to an approximate depth of 6.5 cm with steam-sterilized sandy loam soil. The soil was leveled and impressed with a template to provide five evenly spaced furrows 13 cm long and 0.5 cm deep in each flat. Seeds of soybean, wheat, corn, green foxtail, and johnsongrass were planted in the furrows of the first flat, and seeds of velvetleaf, morningglory, common chickweed, cocklebur, and blackgrass were planted in the furrows of the second flat. The five-row template was employed to firmly press the seeds into place. A topping soil of equal portions of sand and sandy loam soil was placed uniformly on top of each flat to a depth of approximately 0.5 cm. Flats for postemergence testing were prepared in the same manner except that they were planted 9-14 days prior to the preemergence flats and were placed in a greenhouse and watered, thus allowing the seeds to germinate and the foliage to develop.
In both pre- and postemergence tests, a stock solution of the candidate herbicide was prepared by dissolving 0.27 g of the compound in 20 mL of water/acetone (50/50) containing 0.5% v/v sorbitan monolaurate. For an application rate of 3000 g/ha of herbicide a 10 mL portion of the stock solution was diluted with water/acetone (50/50) to 45 mL.
The preemergence flats were initially subjected to a light water spray. The four flats were placed two by two along a conveyor belt (i.e., the two preemergence followed by the two postemergence flats). The conveyor belt fed under a spray nozzle mounted about ten inches above the post-emergent foliage. The preemergent flats were elevated on the belt so that the soil surface was at the same level below the spray nozzle as the foliage canopy of the postemergent plants. The spray of herbicidal solution was commenced and once stabilized, the flats were passed under the spray at a speed to receive a coverage equivalent of 100 L/ha. At this coverage the application rates are those shown in the above table for the individual herbicidal solutions. The preemergence flats were watered immediately thereafter, placed in the greenhouse and watered regularly at the soil surface. The postemergence flats were immediately placed in the green-house and not watered until 24 hours after treatment with the test solution. Thereafter they were regularly watered at ground level. After 12-17 days the plants were examined and the phytotoxicity data were recorded.
Phytotoxicity data were taken as percent control. Percent control was determined by a method similar to the 0 to 100 rating system disclosed in “Research Methods in Weed Science,” 2nd ed., B. Truelove, Ed.; Southern Weed Science Society; Auburn University, Auburn, Ala., 1977.

[8] = tested on: green foxtail (Setaria viridis); experiment: Preemergence herbicidal activity, green foxtail; conditions: Rate of Application 0.3 Kg/Ha, examined after 12-17 days
[9] = tested on: Johnsongrass (Sorghum halepense); experiment: Preemergence herbicidal activity, johnsongrass; conditions: Rate of Application 0.3 Kg/Ha, examined after 12-17 days
[10] = tested on: soybean (Glycine max var. Winchester); experiment: Postemergence herbicidal activity, soybean; conditions: rate of application 0.3 Kg/Ha, rated after 12-17 days
[11] = tested on: wheat (Triticum aestivum var. Lew); experiment: Postemergence herbicidal activity, wheat; conditions: rate of application 0.3 Kg/Ha, rated after 12-17 days
[12] = tested on: field corn (Zea mays var. Pioneer 3732); experiment: Postemergence herbicidal activity, corn; conditions: rate of application 0.3 Kg/Ha, rated after 12-17 days
[13] = tested on: velvetleaf (Abutilon theophrasti); experiment: Postemergence herbicidal activity, velvetleaf; conditions: rate of application 0.3 Kg/Ha, rated after 12-17 days
[14] = tested on: morningglory (Ipomea lacunosa or Ipomea hederacea); experiment: Postemergence herbicidal activity, morningglory; conditions: rate of application 0.3 Kg/Ha, rated after 12-17 days
[15] = tested on: common chickweed (Stellaria media); experiment: Postemergence herbicidal activity, chickweed; conditions: rate of application 0.3 Kg/Ha, rated after 12-17 days
[16] = tested on: common cocklebur (Xanthium strumarium L.); experiment: Postemergence herbicidal activity, cocklebur; conditions: rate of application 0.3 Kg/Ha, rated after 12-17 days
[17] = tested on: green foxtail (Setaria viridis); experiment: Postemergence herbicidal activity, green foxtail; conditions: rate of application 0.3 Kg/Ha, rated after 12-17 days
[18] = tested on: Johnsongrass (Sorghum halepense); experiment: Postemergence herbicidal activity, johnsongrass; conditions: rate of application 0.3 Kg/Ha, rated after 12-17 days
[19] = tested on: common cocklebur (Xanthium strumarium L.); experiment: Preemergence herbicidal activity, cocklebur; conditions: Rate of Application 0.3 Kg/Ha, examined after 12-17 days

SMILES | PREEMERGENCE HERBICIDAL ACTIVITY (% CONTROL) SOY [1] | PREEMERGENCE HERBICIDAL ACTIVITY (% CONTROL) WHT [2] | PREEMERGENCE HERBICIDAL ACTIVITY (% CONTROL) CRN [3] | PREEMERGENCE HERBICIDAL ACTIVITY (% CONTROL) ABUTH [4] | PREEMERGENCE HERBICIDAL ACTIVITY (% CONTROL) IPOSS [5] | PREEMERGENCE HERBICIDAL ACTIVITY (% CONTROL) STEME [6] | PREEMERGENCE HERBICIDAL ACTIVITY (% CONTROL) ALOMY [7] | PREEMERGENCE HERBICIDAL ACTIVITY (% CONTROL) SETVI [8] | PREEMERGENCE HERBICIDAL ACTIVITY (% CONTROL) SORHA [9] | Postemergence herbicidal activity (% control) SOY [10] | Postemergence herbicidal activity (% control) WHT [11] | Postemergence herbicidal activity (% control) CRN [12] | Postemergence herbicidal activity (% control) ABUTH [13] | Postemergence herbicidal activity (% control) IPOSS [14] | Postemergence herbicidal activity (% control) STEME [15] | Postemergence herbicidal activity (% control) XANPE [16] | Postemergence herbicidal activity (% control) SETVI [17] | Postemergence herbicidal activity (% control) SORHA [18] | PREEMERGENCE HERBICIDAL ACTIVITY (% CONTROL) XANPE [19]
CC(=O)Nc1nc2c(-n3c(=O)cc(C(F)(F)F)n(C)c3=O)c(F)cc(Br)c2o1 [Compound 43] | 50% | 40% | 80% | 100% | 100% | 10% | 60% | 70% | 80% | 80% | 30% | 70% | 100% | 100% | 70% | 50% | 50% | 50% | 
COCc1nc2c(-n3c(=O)cc(C(F)(F)F)n(C)c3=O)c(F)cc(Br)c2o1 [Compound 96] | 100% | 90% | 95% | 100% | 100% | 100% | 90% | 100% | 95% | 100% | 90% | 90% | 100% | 100% | 100% | 100% | 100% | 100% | 
Cn1c(C(F)(F)F)cc(=O)n(-c2c(F)cc(Br)c3oc(COc4ccccc4)nc23)c1=O [Compound 99] | 40% | 50% | 60% | 100% | 100% | 100% | 60% | 100% | 65% | 80% | 40% | 80% | 100% | 100% | 95% | 70% | 70% | 65% | 
CC(=O)N(C(C)=O)c1nc2c(-n3c(=O)cc(C(F)(F)F)n(C)c3=O)c(F)cc(Br)c2o1 [Compound 100] | 40% | 30% | 80% | 100% | 100% | 20% | 60% | 50% | 70% | 85% | 40% | 60% | 90% | 100% | 50% | 50% | 30% | 40% | 
CC(=O)OC(C)c1cc2c(Cl)cc(F)c(-n3c(=O)cc(C(F)(F)F)n(C)c3=O)c2o1 (stereo not drawn) [Compound 246] | 100% | 100% | 100% | 100% | 100% | 100% | 100% | 100% | 100% | 95% | 100% | 100% | 100% | 100% | 100% | 100% | 100% | 100% | 100%
CC(OC(=O)c1ccccc1)c1cc2c(Cl)cc(F)c(-n3c(=O)cc(C(F)(F)F)n(C)c3=O)c2o1 (stereo not drawn) [Compound 248] | 100% | 90% | 95% | 100% | 100% | 100% | 95% | 100% | 100% | 80% | 50% | 95% | 100% | 100% | 100% | 100% | 100% | 100% | 100%
Cn1c(C(F)(F)F)cc(=O)n(-c2c(F)cc(Cl)c3[nH]c(C(F)F)nc23)c1=O [Compound 364] | 100% | 60% | 80% | 100% | 100% | 100% | 80% | 100% | 80% | 95% | 40% | 80% | 100% | 100% | 100% | 100% | 100% | 100% | 100%

From patent US6352958B1, “Cycloimido-substituted benzofused heterocyclic herbicides” (FMC Corporation, priority 1997, dated 2002)
